According to patent US9981928B2, “Aryl sulfide derivatives and aryl sulfoxide derivatives as acaricides and insecticides” (BAYER CROPSCIENCE AKTIENGESELLSCHAFT, priority 2013, dated 2018):
Where two headings read alike, the source gives them in different places.

Legend:
[1] = test system: cattle ticks (Boophilus microplus); test: Boophilus microplus injection test (BOOPMI inj); assay type: in vivo; conditions: injection into the abdomen; application rate 20 μg/animal; assessed after 7 days
Description: Boophilus microplus—Injection Test (BOOPMI inj)
Solvent: dimethyl sulfoxide
To produce a suitable preparation of active compound, 10 mg of active compound are mixed with 0.5 ml of solvent and the concentrate is diluted with solvent to the desired concentration.
1 μl of the active compound solution is injected into the abdomen of 5 engorged adult female cattle ticks (Boophilus microplus). The animals are transferred into dishes and kept in a climate-controlled room.
Efficacy is assessed after 7 days by laying of fertile eggs. Eggs which are not visibly fertile are stored in a climate-controlled cabinet until the larvae hatch after about 42 days. An efficacy of 100% means that none of the ticks has laid any fertile eggs; 0% means that all the eggs are fertile.

[2] = test system: greenhouse red spider mite (Tetranychus urticae); test: Tetranychus urticae spray test, OP-resistant (TETRUR), bean leaf disks; assay type: in vivo; conditions: bean leaf disks, application rate 500 g/ha, after 6 days
Method in brief: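 Efficacy (% mites killed) read 6 days after spraying infested Phaseolus vulgaris leaf disks. Compound preparation: acetone and dimethylformamide solvent, made up in water with 1000 ppm alkylaryl polyglycol ether emulsifier; OP-resistant mite strain, all life stages.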

[3] = log P determination by HPLC on reversed-phase columns (C 18), analogously to OECD Guideline 117; assay type: physicochemical; conditions: for logP (HCOOH): LC-MS in the acidic range, pH 2.7, 0.1% aqueous formic acid / acetonitrile; for logP (HCOOH) / logP (neutral): HPLC reversed-phase C 18; for logP (neutral): LC-MS in the neutral range, pH 7.8, 0.001 molar aqueous ammonium hydrogencarbonate / acetonitrile; for chromatographic logP: reversed-phase C18 HPLC column
Method in brief: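 Reversed-phase C18 HPLC per OECD 117 with LC-MS detection and a linear 10→95% acetonitrile gradient. Acidic log P run at pH 2.7 with 0.1% formic acid in both eluents. Neutral log P run at pH 7.8 with 0.001 M aqueous ammonium hydrogencarbonate.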

[4] = test system: southern root-knot nematode (Meloidogyne incognita); test: Meloidogyne incognita test (MELGIN); assay type: in vivo; conditions: lettuce in sand; application rate 20 ppm; after 14 days
Description: Meloidogvne incognita test (MELGIN)
Solvent: 125.0 parts by weight of acetone
To produce a suitable preparation of active compound, 1 part by weight of active compound is mixed with the stated amount of solvent and the concentrate is diluted with water to the desired concentration.
Vessels are filled with sand, active compound solution, an egg/larvae suspension of the southern root-knot nematode (Meloidogyne incognita) and lettuce seeds. The lettuce seeds germinate and the plants develop. The galls develop on the roots.
After 14 days, the nematicidal efficacy in % is determined by the formation of galls. 100% means that no galls were found; 0% means that the number of galls on the treated plants corresponds to the untreated control.

| SMILES | efficacy (laying of fertile eggs) [1] [%] | efficacy in % [2] [%] | logP (HCOOH) [3] | logP (neutral) [3] | nematicidal efficacy in % (formation of galls) [4] [%] | pest or weed control at 500 g/ha ([2]; Tetranychus urticae, foliar, 144 h, read-out: efficacy in %) [%] | chromatographic logP ([3]; acidic range, pH 2.7, 0.1% aqueous formic acid and acetonitrile, read-out: log P[a] / log P(HCOOH)) | chromatographic logP ([3]; neutral range, pH 7.8, 0.001 molar aqueous ammonium hydrogencarbonate and acetonitrile, read-out: log P[b] / log P(neutral)) |
| --- | --- | --- | --- | --- | --- | --- | --- | --- |
| Cc1cc(C)c([S+]([O-])CC(F)(F)F)cc1-n1c(=O)n(C2CC2)c(=O)n1C (centres unmarked) [Example 47] | 100 | 90 | 1.98 | 1.93 |  |  |  |  |
| Cc1cc(F)c(N2CC(=O)N(C3CC3)C2=O)cc1SCC(F)(F)F [Example 210] | 100 | 100 | 2.91 |  | 90 |  |  |  |
| Cc1cc(F)c(N2C(=O)CSC2=NCC(F)(F)F)cc1[S+]([O-])CC(F)(F)F (centres unmarked) [Example 13, 3-{2-Fluoro-4-methyl-5-[(2,2,2-trifluoroethyl)sulfinyl]phenyl}-2-[(2,2,2-trifluoroethyl)imino]-1,3-thiazolidin-4-one] | 100 |  |  |  | 90 | 90 | 2.7 | 2.64 |
| Cn1c(=O)n(C2CC2)c(=O)n1-c1ccc(C(F)(F)F)c([S+]([O-])CC(F)(F)F)c1 (centres unmarked) [Example 54] | 100 | 100 | 2.63 | 2.58 | 90 |  |  |  |
| Cc1cc(F)c(-n2c(=O)n(C3CC3)c(=O)n2C)cc1SCC(F)(F)F [Example 35] | 100 | 100 | 2.83 | 2.81 | 100 |  |  |  |
| COc1ccc(-n2c(=O)n(C3CC3)c(=O)n2C)cc1[S+]([O-])CC(F)(F)F (centres unmarked) [Example 41] |  | 90 | 1.77 | 1.75 | 90 |  |  |  |
| CCn1c(=O)n(C)n(-c2cc(SCC(F)(F)F)c(C)cc2F)c1=O [Example 83] |  | 100 | 2.92 | 2.88 | 100 |  |  |  |
| Cc1cc(F)c(N2C(=O)CSC2=NCC(C)C)cc1SCC(F)(F)F [Example 115] | 100 | 100 | 4.33 | 4.31 |  |  |  |  |
| Cc1ccc(-n2c(=O)n(C3CC3)c(=O)n2C)cc1SCC(F)(F)F [Example 36] |  | 100 | 2.89 | 2.87 | 100 |  |  |  |
| Cn1c(=O)n(C)n(-c2cc([S+]([O-])CC(F)(F)F)c(Cl)cc2F)c1=O (centres unmarked) [Example 29] |  | 90 | 1.93 | 1.91 | 90 |  |  |  |
| C=CCn1c(=O)n(C2CC2)c(=O)n1-c1ccc(C)c(SCC(F)(F)F)c1 [Example 48] | 80 | 100 | 3.37 | 3.31 |  |  |  |  |
